# Data taken from US20200017603A1, “NOVEL USES OF PCSK9 INHIBITORS AND RELATED MEDICATIONS” (BHL PATENT HOLDINGS, LLC, priority 2016, published 2020).
# Where two headings read alike, the source gives them in different places.
# Columns and labels:
# [1] = Patient with chronically elevated liver enzymes and bilirubin treated with Praluent brand alirocumab; format: in vivo, human; settings: middle age person
# Excerpt: A middle age person had chronically elevated AST, ALT and gamma glutamyl transferase and elevated bilirubin levels and clay colored stools. There was no viral hepatitis. […] The patient also felt less fatigued.
# CD81 [2] = test: CD81 expression in vivo in PCSK9-/- mice after alirocumab; settings: after administering alirocumab
# Description: (§1) CD81 expression in vivo in PCSK9−/−mice and in hyperlipidemic mice expressing human PCSK9 with reduced LDLR expression (PCSK9hum/hum/LDLR+/−) were tested after administering alirocumab; no changes in total CD81 levels were observed. […] Based on conflicting data, the relevant scientific literature is currently considered inadequate to conclusively address the potential impact of alirocumab on HCV infectivity. It should be noted that increased cell-surface LDLR has also been postulated to modulate HCV infectivity; statins, like alirocumab, increase cell-surface LDLR.
# CD81 [3] = test: CD81 expression in vivo in hyperlipidemic PCSK9hum/hum/LDLR+/- mice after alirocumab; settings: hyperlipidemic mice expressing human PCSK9 with reduced LDLR expression (PCSK9hum/hum/LDLR+/-), after administering alirocumab
# Description: as §1
# HCV = HCV infectivity and replication kinetics in vitro with extracellular PCSK9 in presence/absence of alirocumab; format: cell-based; settings: addition of extracellular PCSK9 in the presence/absence of alirocumab
# [4] = monkeys, 3-month, co-administered with atorvastatin at doses producing modest ALT increases; cited from earlier work
# [5] = humans administered alirocumab; cited from earlier work
# [6] = cited from earlier work
# [7] = monkey, cited from earlier work
# [8] = monkey, in vivo; cited from earlier work
# [9] = monkey, in vivo; cited from earlier work; remark: listed apart in the source
# [10] = rat, in vivo; cited from earlier work
# [11] = rat, in vivo; cited from earlier work; remark: listed apart in the source
# [12] = monkey, in vivo; cited from earlier work; remark: listed apart in the source
# [13] = chronically elevated, no viral hepatitis, after treatment for 1-2 months
substance,measurement,setting,value
alirocumab,ALT,[1]; [13],returned to normal
same,AST,[1]; [13],returned to normal
same,gamma glutamyl transferase,[1]; [13],returned to normal
same,bilirubin levels,"[1]; elevated, after treatment for 1-2 months",returned to normal
same,fatigue,[1]; after treatment,less fatigued
same,clay colored stools,[1]; after treatment for 1-2 months,became normal
same,total CD81 levels,CD81 [2],no changes
same,total CD81 levels,CD81 [3],no changes
same,effects on HCV infectivity,HCV,No effects
same,effects on HCV replication kinetics,HCV,No effects
same,liver toxicity,[4],not exacerbated
same,HDL-C,[5],not reduced
same,sinusoidal cell defects in the liver,"[6]; rat, in vivo",sinusoidal cell defects were observed
same,HDL,[6]; rats administered alirocumab,low HDL
same,sinusoidal cell defects in the liver (this phenomenon),[7]; in vivo,not observed
same,HDL-C levels,[7],greatly reduced
same,effects on T-cell dependent antibody response,[8],no effects
same,effects on cytotoxic T-cell activity,[8],no effects
same,effects on immune cell populations,[8],no effects
same,effects on natural killer cell activity,[8],no effects
same,imbalances for infections,[9],no imbalances
same,imbalances for infections,[10],no imbalances
same,alirocumab-related effects on peripheral neurons,[11],No significant alirocumab-related effects
same,alirocumab-related effects on peripheral neurons,[12],No significant alirocumab-related effects
